{
  "source": "paper PMC4256349",
  "about": "“A Conformational Sampling Model for Radical Catalysis in Pyridoxal Phosphate- and Cobalamin-dependent Enzymes” (The Journal of Biological Chemistry, 2014)",
  "key": {"[1]": {"target": "T1, ornithine 4,5-aminomutase (OAM) (Acetoanaerobium sticklandii, UniProt E3PY95)", "T1 sequence (E3PY95 1-740)": "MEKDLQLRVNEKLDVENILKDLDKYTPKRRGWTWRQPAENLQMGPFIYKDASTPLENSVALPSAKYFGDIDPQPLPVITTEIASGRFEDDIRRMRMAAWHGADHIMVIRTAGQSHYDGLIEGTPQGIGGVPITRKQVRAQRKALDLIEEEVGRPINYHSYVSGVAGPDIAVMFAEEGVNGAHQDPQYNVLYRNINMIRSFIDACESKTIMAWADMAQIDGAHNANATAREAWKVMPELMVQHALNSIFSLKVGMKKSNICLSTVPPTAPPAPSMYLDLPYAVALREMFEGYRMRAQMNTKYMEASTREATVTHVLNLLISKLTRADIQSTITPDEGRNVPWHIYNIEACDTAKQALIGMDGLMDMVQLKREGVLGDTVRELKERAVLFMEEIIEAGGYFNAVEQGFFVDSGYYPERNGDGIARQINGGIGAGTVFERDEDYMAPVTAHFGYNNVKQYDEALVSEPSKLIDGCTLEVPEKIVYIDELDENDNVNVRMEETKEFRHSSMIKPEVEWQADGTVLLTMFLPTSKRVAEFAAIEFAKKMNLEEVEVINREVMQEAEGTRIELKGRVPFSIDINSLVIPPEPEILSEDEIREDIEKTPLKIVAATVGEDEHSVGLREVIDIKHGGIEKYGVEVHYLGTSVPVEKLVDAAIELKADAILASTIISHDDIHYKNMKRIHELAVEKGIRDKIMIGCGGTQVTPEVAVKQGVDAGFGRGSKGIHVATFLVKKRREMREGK", "T1 sequence (E3PY96 1-121 partner)": "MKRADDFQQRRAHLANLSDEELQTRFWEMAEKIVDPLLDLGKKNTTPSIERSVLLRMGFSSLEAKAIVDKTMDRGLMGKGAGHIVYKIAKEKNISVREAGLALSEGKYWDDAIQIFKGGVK", "assay": "UV-visible, stopped flow and EPR; external aldimine and Co-C homolysis", "type": "binding", "design": "gene oraE; C-terminal His6 (pET-OAMH2), expressed in E. coli; purified apoenzyme reconstituted with PLP and AdoCbl; OAM dimer printed (alpha2beta2 known)", "details": "anaerobic, pH 8.5, 25 °C, 2.5 mM; inhibitor, covalent (PLP external aldimine)"}, "[2]": {"target": "T1, ornithine 4,5-aminomutase (OAM)", "assay": "UV-visible spectra, external aldimine formation", "type": "binding", "design": "gene oraE; C-terminal His6 (pET-OAMH2), expressed in E. coli; purified apoenzyme reconstituted with PLP and AdoCbl; OAM dimer printed (alpha2beta2 known)", "details": "aerobic, pH 8.5, 25 °C, 5 mM; inhibitor, covalent (PLP external aldimine)"}, "[3]": {"target": "T1, ornithine 4,5-aminomutase (OAM)", "design": "gene oraE", "details": "anaerobic, pH 8.5, 25 °C; equimolar with apoenzyme; covalent (Lys629)"}},
  "data": [
    {"smiles": "NCCC(N)C(=O)O", "note": "(racemic) [DL-2,4-diaminobutyric acid]", "values": [
      {"measurement": "UV-visible, stopped flow and EPR; external aldimine and Co-C homolysis", "setting": "[1]", "result": "transimination induced by the DAB binding with PLP"}
    ]},
    {"smiles": "NCC(N)C(=O)O", "note": "(racemic) [DL-2,3-diaminopropanoic acid]", "values": [
      {"measurement": "UV-visible spectra, external aldimine formation", "setting": "[2]", "result": "does not induce AdoCbl bond homolysis but does lead to external aldimine formation"}
    ]},
    {"smiles": "Cc1ncc(COP(=O)(O)O)c(C=O)c1O", "note": "[PLP]", "values": [
      {"measurement": "UV-visible spectra, transimination at 416 nm", "setting": "[3]", "result": "transimination induced by the D-ornithine binding with PLP"}
    ]}
  ]
}
